Laboratory results taken from patent publication US7507739B2, “6-[(substituted)phenyl]triazolopyrimidines as anticancer agents” (Wyeth, priority 2003, dated 2009).

What was measured:
[1] = system: MAP-rich tubulin; assay: Tubulin polymerization test with MAP-rich tubulin; type: biochemical, bovine; conditions: 0.3 μM compound, 20 min, fold enhancement over control
Outline: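 Bovine brain MAP-rich tubulin (1.3 mg/mL) in PEM buffer pH 6.9 with 1 mM GTP, compounds at 0.3 μM final (0.3% DMSO), 24° for 60 min. Turbidity read at 340 nm each minute, baseline-subtracted; mean A340 at 20 min divided by solvent control gives fold enhancement.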

[2] = system: HeLa cells; assay: Cell cycle analysis with HeLa cells; type: cell-based, human; conditions: 18 hr
Description: HeLa cells are harvested by trypsinization, washed, counted and distributed to wells of 12-well plates at 125,000 cells per well in 2 mL medium. Cells are cultured overnight. […] Cells are continued in culture for 18 hr after compound addition, then cells in each well are harvested (taking care to recover both adherent and non-adherent cells) and processed using the CycleTEST PLUS kit (Becton Dickinson Immunocytometry Systems, San Jose, Calif.). Flow cytometry is done with a FACSort instrument (Becton Dickinson).
This procedure measures the percentages of cells in a population that are in the G1, S, and G2/M phases of the cell cycle. It utilizes staining of cell nuclei with propidium iodide and analysis by flow cytometry.

For `C[C@H](Nc1c(-c2c(F)cc(OCCCN(C)C)cc2F)c(Cl)nc2ncnn12)C(F)(F)F.Cl` [Example 1a, 5-chloro-6-{4-[3-(dimethylamino)propoxy]-2,6-difluorophenyl}-N-[(1S)-2,2,2-trifluoro-1-methylethyl][1,2,4]triazolo[1,5-a]pyrimidin-7-amine hydrogen chloride Salt], the “A340 Compound/A340 Control” value [1] was 6.1, the “Percent in Cell Cycle Phase >4N” value ([2]; 20 nM) was 2% and the “Percent in Cell Cycle Phase Apop” value ([2]; 20 nM) was 13%. For the same compound, the “Percent in Cell Cycle Phase G1” value ([2]; 20 nM) was 54%, the “Percent in Cell Cycle Phase G2/M” value ([2]; 20 nM) was 14% and the “Percent in Cell Cycle Phase S” value ([2]; 20 nM) was 18%. For the same compound, the “Percent in Cell Cycle Phase >4N” value ([2]; 30 nM) was 1%, the “Percent in Cell Cycle Phase Apop” value ([2]; 30 nM) was 38% and the “Percent in Cell Cycle Phase G1” value ([2]; 30 nM) was 35%. For the same compound, the “Percent in Cell Cycle Phase G2/M” value ([2]; 30 nM) was 14%, the “Percent in Cell Cycle Phase S” value ([2]; 30 nM) was 12% and the “Percent in Cell Cycle Phase >4N” value ([2]; 40 nM) was 1%. For the same compound, the “Percent in Cell Cycle Phase Apop” value ([2]; 40 nM) was 71%, the “Percent in Cell Cycle Phase G1” value ([2]; 40 nM) was 7% and the “Percent in Cell Cycle Phase G2/M” value ([2]; 40 nM) was 13%. The “Percent in Cell Cycle Phase S” value ([2]; 40 nM) was 8%, the “Percent in Cell Cycle Phase Apop” value ([2]; 40 nM, listed as example 1a) was “about 70%” and the “Percent in Cell Cycle Phase G2/M” value ([2]; 40 nM, listed as example 1a) was “no increase”. The “Percent in Cell Cycle Phase >4N” value ([2]; 50 nM) was 2%, the “Percent in Cell Cycle Phase Apop” value ([2]; 50 nM) was 63% and the “Percent in Cell Cycle Phase G1” value ([2]; 50 nM) was 6%. For the same compound, the “Percent in Cell Cycle Phase G2/M” value ([2]; 50 nM) was 20%, the “Percent in Cell Cycle Phase S” value ([2]; 50 nM) was 9% and the “Percent in Cell Cycle Phase >4N” value ([2]; 60 nM) was 3%. The “Percent in Cell Cycle Phase Apop” value ([2]; 60 nM) was 52%, the “Percent in Cell Cycle Phase G1” value ([2]; 60 nM) was 5% and the “Percent in Cell Cycle Phase G2/M” value ([2]; 60 nM) was 32%. The “Percent in Cell Cycle Phase S” value ([2]; 60 nM) was 10%, the “Percent in Cell Cycle Phase >4N” value ([2]; 70 nM) was 4% and the “Percent in Cell Cycle Phase Apop” value ([2]; 70 nM) was 26%. The “Percent in Cell Cycle Phase G1” value ([2]; 70 nM) was 3%, the “Percent in Cell Cycle Phase G2/M” value ([2]; 70 nM) was 57% and the “Percent in Cell Cycle Phase S” value ([2]; 70 nM) was 9%. The “Percent in Cell Cycle Phase >4N” value ([2]; 80 nM) was 5%, the “Percent in Cell Cycle Phase Apop” value ([2]; 80 nM) was 24% and the “Percent in Cell Cycle Phase G1” value ([2]; 80 nM) was 4%. For the same compound, the “Percent in Cell Cycle Phase G2/M” value ([2]; 80 nM) was 58%, the “Percent in Cell Cycle Phase S” value ([2]; 80 nM) was 9% and the “Percent in Cell Cycle Phase >4N” value ([2]; 90 nM) was 6%. The “Percent in Cell Cycle Phase Apop” value ([2]; 90 nM) was 22%, the “Percent in Cell Cycle Phase G1” value ([2]; 90 nM) was 5% and the “Percent in Cell Cycle Phase G2/M” value ([2]; 90 nM) was 58%. For the same compound, the “Percent in Cell Cycle Phase S” value ([2]; 90 nM) was 10%, the “Percent in Cell Cycle Phase >4N” value ([2]; 100 nM) was 5% and the “Percent in Cell Cycle Phase Apop” value ([2]; 100 nM) was 24%. The “Percent in Cell Cycle Phase G1” value ([2]; 100 nM) was 4%, the “Percent in Cell Cycle Phase G2/M” value ([2]; 100 nM) was 58% and the “Percent in Cell Cycle Phase S” value ([2]; 100 nM) was 10%. For the same compound, the “Percent in Cell Cycle Phase >4N” value ([2]; 110 nM) was 5%, the “Percent in Cell Cycle Phase Apop” value ([2]; 110 nM) was 24% and the “Percent in Cell Cycle Phase G1” value ([2]; 110 nM) was 6%. For the same compound, the “Percent in Cell Cycle Phase G2/M” value ([2]; 110 nM) was 53%, the “Percent in Cell Cycle Phase S” value ([2]; 110 nM) was 13% and the “Percent in Cell Cycle Phase >4N” value ([2]; 120 nM) was 5%. For the same compound, the “Percent in Cell Cycle Phase Apop” value ([2]; 120 nM) was 28%, the “Percent in Cell Cycle Phase G1” value ([2]; 120 nM) was 6% and the “Percent in Cell Cycle Phase G2/M” value ([2]; 120 nM) was 48%. The “Percent in Cell Cycle Phase S” value ([2]; 120 nM) was 14%.
